According to ChEMBL document CHEMBL4130465, “Berchemiosides A-C, 2-Acetoxy-ω-phenylpentaene Fatty Acid Triglycosides from the Unripe Fruits of Berchemia berchemiifolia” (J Nat Prod, 2017):
Calls of active or inactive are those of the source. The rule behind the calls is not given here.

Legend:
[1] = target: Xanthine dehydrogenase/oxidase (Homo sapiens, UniProt P47989); assay: Inhibition of xanthine oxidase (unknown origin) using xanthine as substrate pretreated for 10 mins followed by substrate addition measured every 2 mins for 6 mins; details: for inhibition (INH): human, 0.1 h
HCT-116 [2] = assay: Cytotoxicity against human HCT116 cells up to 100 uM after 48 hrs by MTT assay; assay type: functional, cell-based
HCT-116 [3] = assay: Cytotoxicity against human HCT116 cells after 48 hrs by MTT assay; assay type: functional, cell-based; details: HCT-116, 48 h

Xanthine dehydrogenase/oxidase, sequence (P47989 whole entry): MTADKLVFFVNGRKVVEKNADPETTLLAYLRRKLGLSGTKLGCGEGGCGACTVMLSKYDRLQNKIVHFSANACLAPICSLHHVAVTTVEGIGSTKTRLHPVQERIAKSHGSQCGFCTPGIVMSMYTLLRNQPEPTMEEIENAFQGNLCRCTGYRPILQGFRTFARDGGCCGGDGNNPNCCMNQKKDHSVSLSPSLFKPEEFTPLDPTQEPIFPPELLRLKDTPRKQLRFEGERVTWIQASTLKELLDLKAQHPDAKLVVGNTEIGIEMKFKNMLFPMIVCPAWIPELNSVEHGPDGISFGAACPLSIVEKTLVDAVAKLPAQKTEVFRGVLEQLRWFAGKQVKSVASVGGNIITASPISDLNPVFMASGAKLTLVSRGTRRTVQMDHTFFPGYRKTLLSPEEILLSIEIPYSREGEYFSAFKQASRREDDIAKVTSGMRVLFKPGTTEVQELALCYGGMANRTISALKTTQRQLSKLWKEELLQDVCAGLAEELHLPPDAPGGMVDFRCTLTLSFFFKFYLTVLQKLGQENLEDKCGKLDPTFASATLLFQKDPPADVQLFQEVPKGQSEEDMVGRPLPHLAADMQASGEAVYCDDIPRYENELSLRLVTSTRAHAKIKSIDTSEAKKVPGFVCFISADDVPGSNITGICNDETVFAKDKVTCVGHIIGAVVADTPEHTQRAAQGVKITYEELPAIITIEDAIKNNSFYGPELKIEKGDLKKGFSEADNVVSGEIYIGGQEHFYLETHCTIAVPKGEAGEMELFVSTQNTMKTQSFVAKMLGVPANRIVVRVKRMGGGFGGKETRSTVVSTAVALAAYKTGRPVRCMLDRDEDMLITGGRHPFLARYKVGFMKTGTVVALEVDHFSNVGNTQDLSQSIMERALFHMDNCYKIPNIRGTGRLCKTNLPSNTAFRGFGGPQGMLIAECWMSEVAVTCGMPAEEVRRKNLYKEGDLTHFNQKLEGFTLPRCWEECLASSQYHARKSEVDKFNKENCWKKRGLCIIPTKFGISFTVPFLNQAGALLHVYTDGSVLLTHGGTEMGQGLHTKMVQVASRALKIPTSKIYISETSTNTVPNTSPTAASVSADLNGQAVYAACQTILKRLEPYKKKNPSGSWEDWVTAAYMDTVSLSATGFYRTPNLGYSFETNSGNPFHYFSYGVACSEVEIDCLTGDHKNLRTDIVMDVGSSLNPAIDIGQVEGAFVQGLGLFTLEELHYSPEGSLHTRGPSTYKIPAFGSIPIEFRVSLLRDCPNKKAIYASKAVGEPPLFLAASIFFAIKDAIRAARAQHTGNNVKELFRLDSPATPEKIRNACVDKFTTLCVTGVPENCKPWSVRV

SMILES	inhibition (INH) [1]	Activity (HCT-116 [2])	further results
O=C1C[C@H](c2ccc(O)c(O)c2)Oc2cc(O)cc(O[C@@H]3O[C@H](CO)[C@@H](O)[C@H](O)[C@H]3O[C@@H]3O[C@H](CO)[C@@H](O)[C@H](O)[C@H]3O)c21	Not Active		
O=C1C[C@@H](c2ccc(O)c(O)c2)Oc2cc(O)cc(O[C@@H]3O[C@H](CO)[C@@H](O)[C@H](O)[C@H]3O[C@@H]3O[C@H](CO)[C@@H](O)[C@H](O)[C@H]3O)c21	Not Active		
CC(=O)O[C@H](CCC/C=C/C=C/C=C/C=C/C=C/c1ccc(O[C@@H]2O[C@H](CO[C@@H]3O[C@@H](C)[C@H](O)[C@@H](O[C@@H]4O[C@H](COC(=O)/C=C/c5ccccc5)[C@@H](O)[C@H](O)[C@H]4O)[C@H]3O)[C@@H](O)[C@H](O)[C@H]2O)cc1)C(=O)O		inactive	
COc1cc2oc(-c3ccc(O)cc3)cc(=O)c2c(O)c1[C@@H]1O[C@H](CO)[C@@H](O)[C@H](O)[C@H]1O [SWERTISIN]	Not Active		
C[C@@H]1O[C@@H](OC[C@H]2O[C@@H](Oc3ccc(C=O)cc3)[C@H](O)[C@@H](O)[C@@H]2O)[C@H](O)[C@H](O[C@@H]2O[C@H](COC(=O)/C=C/c3ccccc3)[C@@H](O)[C@H](O)[C@H]2O)[C@H]1O		inactive	
CC(=O)O[C@H](CCC/C=C/C=C/C=C\C=C/C=C/c1ccc(O[C@@H]2O[C@H](CO[C@@H]3O[C@@H](C)[C@H](O)[C@@H](O[C@@H]4O[C@H](CO)[C@@H](O)[C@H](O)[C@H]4O)[C@H]3O)[C@@H](O)[C@H](O)[C@H]2O)cc1)C(=O)O		inactive	
COc1cc2oc(-c3ccc(O)c(O)c3)cc(=O)c2c(O)c1[C@@H]1O[C@H](CO)[C@@H](O)[C@H](O)[C@H]1O	Not Active		
CC(=O)O[C@H](CCC/C=C/C=C/C=C/C=C/C=C/c1ccc(O[C@@H]2O[C@H](CO[C@@H]3O[C@@H](C)[C@H](O)[C@@H](O[C@@H]4O[C@H](COC(=O)/C=C/C=C/c5ccccc5)[C@@H](O)[C@H](O)[C@H]4O)[C@H]3O)[C@@H](O)[C@H](O)[C@H]2O)cc1)C(=O)O		inactive	
CC(=O)O[C@@]12CO[C@@H]1C[C@H](O)[C@@]1(C)C(=O)[C@H](O)C3=C(C)[C@@H](OC(=O)[C@H](O)[C@@H](NC(=O)OC(C)(C)C)c4ccccc4)C[C@@](O)([C@@H](OC(=O)c4ccccc4)[C@H]21)C3(C)C [DOCETAXEL ANHYDROUS]			IC50 (HCT-116 [3]): 0.13 µM
O=c1c(O[C@@H]2O[C@H](CO)[C@@H](O)[C@H](O)[C@H]2O[C@@H]2O[C@H](CO)[C@@H](O)[C@H](O)[C@H]2O)c(-c2ccc(O)c(O)c2)oc2cc(O)cc(O)c12	Not Active		
O=C1C[C@H](c2ccc(O)cc2)Oc2cc(O)cc(O[C@@H]3O[C@H](CO)[C@@H](O)[C@H](O)[C@H]3O[C@@H]3O[C@H](CO)[C@@H](O)[C@H](O)[C@H]3O)c21			IC50 [1]: 95.4 µM
